# In patent publication US6992215B2, “Thiol-based NAALADase inhibitors” (Guildford Pharmaceuticals Inc., priority 2001, dated 2006):
# Tests used:
# STZ-diabetic rats [1] = experiment: Reversal of diabetic neuropathy in STZ model, delayed dosing; assay type: in vivo; details: for neuropathic hyperalgesia (withdrawal latency difference scores) / motor nerve conduction velocity: daily p.o.; for neuropathic hyperalgesia (withdrawal latency difference scores): treatment started 5 weeks post STZ, within two weeks of treatment, FIG. 31; for motor nerve conduction velocity: within 8 weeks of dosing, persisted through 12 weeks, FIG. 32
# Method: Rats (200 to 225 g) were injected with STZ (70 mg/kg) into the tail vein. Diabetes (>350 mg/dl) was confirmed in all rats, 4 weeks after STZ administration. Rats were left untreated until 35 to 49 days after STZ. Compound D (1, 3, or 10 mg/kg), Compound E (10 mg/kg), or vehicle were dosed daily p.o. following confirmation of hyperalgesia and/or nerve conduction velocity deficits. In separate experiments, onset of treatment was delayed until 60 to 90 days after STZ administration. Nerve conduction velocity or withdrawal response to thermal stimulation of hind paws was measured at intervals, usually bi-weekly for thermal response and monthly for nerve conduction velocity.
# Sensory and motor nerve conduction velocities were evaluated using the method of De Koning and Gispen (Peptides 8: 415–422, 1987). Electrophysiological evaluation was carried out within one hour of dosing. Animals were anesthetized with isoflurane and stimulating needle electrodes were inserted close to the sciatic nerve at the sciatic notch and the tibial nerve near the ankle. Recording electrodes were placed over the foot muscles. Stimuli were applied and responses recorded. Motor and sensory nerve conduction velocities were calculated by measuring the distance between the sciatic notch and ankle sites, and the latency between the M-wave and the H-reflex.
# Animals were acclimated to the apparatus for at least 5 min. An infra-red source was placed under below the plantar surface of the rat hind-paw. The intensity of the source was adjusted so that latency for normal rats was about 10 secs. Animals were tested for thermal response latency according to the method of Hargreaves et al (Pain 77–88, 1988). Each animal was tested 8 times (4 each hind limb) and the latency of response recorded automatically to nearest 0.1 sec. An average of the last 4 measurements for each paw was calculated (8 total measurements) and noted for each rat.
# [2] = test system: chronic constrictive injury-induced rats; experiment: Neuropathic pain in CCI model (sciatic nerve ligation, thermal hyperalgesia); assay type: in vivo; details: 50, 30, 10, 3, 1 or 0.3 mg/kg for 12 (or 15) days after sciatic nerve ligation, FIGS. 17-22
# Method: Sciatic nerve ligation, consisting of 4 ligatures tied loosely around the sciatic nerve at 1 mm intervals proximal to the nerve trifurcation, was performed on rats. […] The rats were habituated to a Hargreaves apparatus. An infrared heat source was directed onto the dorsal surface of each rat's hindpaws and the time taken for the rat to withdraw its paws was noted. The difference in scores between the latency of the response for the paw on the operated side versus the paw on the unoperated control side was determined.
# The rats were treated with either Compound 49 (10, 1 or 0.1 mg/kg) or a vehicle for 15 days after sciatic nerve ligation. Thermal pain responses were measured at days 0, 1, 5, 8, 11 and 15. The differences in scores for the rats treated with a vehicle and the rats treated with Compound 49 are graphically presented in FIGS. 13-15.
# The rats were treated with either Compound 5 (50, 30, 10, 3, 1 or 0.3 mg/kg) or a vehicle for 12 (or 15) days after sciatic nerve ligation. Thermal pain responses were measured at days 0, 1, 5, 8 and 12 (and 15). The differences in scores for the rats treated with a vehicle and the rats treated with Compound 5 are graphically presented in FIGS. 17-22.
# The rats received either Compound C (50 mg/kg i.p. daily) or a vehicle starting 10 days post surgery. […] Normal (unoperated) rats had approximately equal latencies for both paws. This effect was significant starting at 11 days of drug treatment and persisted through to the end of the study (for 21 days of daily dosing).
# cortical cell cultures = experiment: In Vitro Assay on Ischemia (glutamate toxicity after potassium cyanide / 2-deoxyglucose insult); assay type: cell-based; details: concentration required to cause a 50% reduction in glutamate toxicity following an ischemic insult
# Method: To examine the in vitro effect of the inventive compounds on ischemia, cortical cell cultures were treated with various compounds of this invention during an ischemic insult utilizing potassium cyanide and 2-deoxyglucose, and for one hour thereafter. For a description of the experimental method used, see Vornov et al., J. Neurochem., Vol. 65, No. 4, pp. […] (1995).
# BB/W diabetic rats = experiment: Progression of neuropathic pain and nerve conduction deficits in BB/W model; assay type: in vivo
# Source text: Male BB/W rats (BRI, Mass) spontaneously develop a cell mediated autoimmune destruction of pancreatic B cells, resulting in onset of insulin-dependent (Type I) diabetes (Guberski 1994). […] This renders them valuable for experimental trials of new compounds for future treatments of this major disorder. In the present study, Compound D and Compound A were examined for their ability to alter the progression of diabetic neuropathy. […] Another group of non-diabetic rats also receiving vehicle were tested. All animals were continuously monitored for body weight, urine volume, blood sugar and glycated haemoglobin. In the first month of the study, all animals were tested for thermal nociception in a Hargreaves apparatus, weekly. After the first month this was done biweekly and then monthly. The testing consists of directing an infrared heat source onto the dorsal surface of the rat hindpaw and noting the time taken for the animal to remove its paw (see Hargreaves et al., supra, for a description of the experimental method). Each animal was tested 8 times and the mean withdrawal latency noted.
# Nerve conduction velocity was also measured every two weeks through the first eight weeks of treatment and every month thereafter through to the six months of treatment (see De Koning et al., Peptides, Vol. 8, No. 3, pp. 415–22 (1987) for a description of the experimental method). […] This was apparent starting at 8 weeks of treatment and persisted to a similar degree through to the six month termination point of the study.
# STZ-diabetic rats [3] = experiment: Diabetic neuropathy in STZ model (motor and sensory nerve conduction velocity); assay type: in vivo
# Method: Motor and sensory nerve conduction velocity was also measured in STZ-diabetic animals after 4, 8 and 12 weeks of treatment (see De Koning et al., supra, for a description of the experimental method). Briefly, stimulating needle electrodes were inserted close to the sciatic and tibial nerves with recording electrodes being placed subcutaneously over the distal foot muscles, in anesthetized rats.
# [4] = test system: STZ-induced diabetic rats; experiment: Neuropathic pain in STZ model (Hargreaves thermal nociception); assay type: in vivo, Sprague-Dawley rats; details: 10 mg/kg i.p. daily, treatment started 45 days post-STZ
# Method: Male Sprague-Dawley rats (200–225 g) were rendered diabetic by intravenous administration of streptozotocin (“STZ”, 70 mg/kg in phosphate buffered saline). Diabetic animals were divided into five groups: one group receiving Compound A (10 mg/kg or 1 mg/kg), Compound D (10 mg/kg or 1 mg/kg) or vehicle. Another group of animals (non-STZ treated) served as non-diabetic controls. Drug/vehicle treatment was started in diabetic animals 45 days post-STZ administration. STZ-induced diabetic rats were tested for sensitivity to a heat source as soon as blood glucose levels rose to 320 mg/dl or above (30 days post STZ). The rats were then acclimated to a Hargreaves apparatus and thermal nociception was monitored using an infrared heat source directed into the dorsal surface of the hindpaw, and the time taken for the animal to remove its paw noted to the nearest 0.1 seconds (see Hargreaves et al., supra, for detailed experimental method). The intensity of the beam source was adjusted such that the mean latency for control animals (non-STZ treated) was approximately 10 seconds. Each animal was tested 8 times and the mean difference score (between mean non-diabetic control latency and mean diabetic latency) are graphically presented in FIGS. 7A and 7B.
Structure (SMILES),neuropathic hyperalgesia (withdrawal latency difference scores) (STZ-diabetic rats [1]),motor nerve conduction velocity (STZ-diabetic rats [1]),difference in scores between the operated and unoperated paws [2],EC50 (cortical cell cultures),"motor nerve conduction (STZ-diabetic rats [1]; lower doses 1 and 3 mg/kg, treatment 7 weeks post STZ, even 8 weeks after dosing)","sensory nerve conduction (STZ-diabetic rats [1]; lower doses 1 and 3 mg/kg, treatment 7 weeks post STZ, within 4 weeks of treatment)","neuropathic pain abnormalities (STZ-diabetic rats [1]; lower doses 1 and 3 mg/kg, treatment initiated 7 weeks post STZ, FIG. 34)","sensory and motor nerve conduction velocity deficits (STZ-diabetic rats [1]; rats left untreated until 60 days after STZ, external CRO, FIGS. 37 and 38)","nerve conduction velocity deficits versus diabetic vehicle controls (BB/W diabetic rats; 10 mg/kg daily, from 8 weeks to six months of treatment, FIG. 12)","withdrawal latency versus diabetic vehicle-treated rats (BB/W diabetic rats; 10 mg/kg i.p. daily, starting after 4 weeks and through six months of treatment, FIG. 11)",treatment time after which increase of motor and sensory nerve conduction velocities was significant (STZ-diabetic rats [3]; 10 mg/kg treatment group),"motor and sensory nerve conduction velocities versus diabetic controls (STZ-diabetic rats [3]; either dose (10 mg/kg or 1 mg/kg), FIGS. 10A and 10B)",hyperalgesic response (withdrawal latency difference score) [4]
"O=C(O)c1cccc(CC(CCCS)C(=O)O)c1 (stereo not drawn) [Compound 5, 3-carboxy-alpha-(3-mercaptopropyl)-benzenepropanoic acid]",reversed towards normal,reversed the motor nerve conduction velocity towards normal,normalized the difference in scores,6.5 nM,,,,,,,,,
"O=C(O)CCC(CCS)C(=O)O (stereo not drawn) [Compound D, 2-(2-sulfanylethyl)pentanedioic acid]",reversed towards normal,reversed the motor nerve conduction velocity towards normal,,,remained unimproved,significantly improved towards normal,Significant reduction in pain abnormalities,Partial reversal of both deficits,significantly less severe nerve conduction deficits,longer withdrawal latencies,12 weeks,increased both motor and sensory nerve conduction velocities,completely reversed
